Reference: patent US8361968B2 (Takeda Pharmaceutical Company Limited, priority 2002, dated 2013)
“And” between values parts separate entries of the source, which are not always exact repeats. Equal values may be shown once. Square brackets hold non-standard residues; d marks the D form. Peptide text beside a SMILES is read from it. * marks the point of attachment. Propanoyl(3-indol-3-yl) = O=C(CCc1c[nH]c2ccccc12)*; Phe(4-F) = N[C@@H](Cc1ccc(F)cc1)C(=O)O; 1Nal = N[C@@H](Cc1cccc2ccccc12)C(=O)O; Arg(Me) = CNC(=N)NCCC[C@H](N)C(=O)O; Cha = N[C@@H](CC1CCCCC1)C(=O)O; azaGly = NNC(=O)O

Tests used:
hOT7T175 [1] = biological target: T1, hOT7T175 (Homo sapiens, UniProt Q969F8, L364H); assay: hOT7T175 receptor binding activity: binding inhibition of Cy-5-labeled metastin (40-54) on hOT7T175-expressed CHO cells; set-up: expressed in transfected cells; host or cells: CHO cells
hOT7T175 [2] = biological target: T1, hOT7T175; assay: Intracellular Ca ion level-increasing activity using FLIPR in hOT7T175/CHO; type: cell-based; set-up: expressed in transfected cells; host or cells: CHO/dhfr- cells, obtained from ATCC; conditions: relative, Metastin (1-54) = 1

T1 sequence (Q969F8 whole entry L364H): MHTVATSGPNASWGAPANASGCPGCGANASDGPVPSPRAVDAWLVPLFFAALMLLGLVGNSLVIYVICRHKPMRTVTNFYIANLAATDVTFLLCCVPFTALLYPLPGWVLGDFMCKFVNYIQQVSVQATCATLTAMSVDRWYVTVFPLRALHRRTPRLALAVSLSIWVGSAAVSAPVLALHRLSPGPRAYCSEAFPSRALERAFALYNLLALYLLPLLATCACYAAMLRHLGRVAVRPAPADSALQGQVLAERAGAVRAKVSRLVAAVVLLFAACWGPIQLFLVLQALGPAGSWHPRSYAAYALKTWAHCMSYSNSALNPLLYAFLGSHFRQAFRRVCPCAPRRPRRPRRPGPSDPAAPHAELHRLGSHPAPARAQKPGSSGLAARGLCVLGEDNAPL

Compound	IC50 (hOT7T175 [1]) [nM]	Specific Activity (intracellular Ca ion level-increasing activity) (hOT7T175 [2])
CC(C)C[C@H](NC(=O)[C@H](C)NC(=O)[C@H](Cc1ccccc1)NC(=O)[C@H](CO)NC(=O)[C@H](CC(N)=O)NC(=O)[C@H](Cc1c[nH]c2ccccc12)NC(=O)[C@H](CC(N)=O)NC(=O)[C@@H](N)Cc1ccc(O)cc1)C(=O)N[C@@H](CCCNC(=N)N)C(=O)N[C@@H](Cc1ccccc1)C(N)=O [Compound No. 50] (H-YNWNSFALRF-NH2)	190	30
CC(C)C[C@H](NC(=O)CNC(=O)[C@H](Cc1ccccc1)NC(=O)[C@H](CO)NC(=O)[C@H](CC(N)=O)NC(=O)[C@H](Cc1c[nH]c2ccccc12)NC(=O)[C@H](CC(N)=O)NC(=O)[C@@H](N)Cc1ccc(O)cc1)C(=O)N[C@@H](CCCCNC(=N)N)C(=O)N[C@@H](Cc1ccccc1)C(N)=O [Compound No. 97]	370	10
CC[C@H](C)[C@H](NC(=O)[C@H](N)Cc1ccc(O)cc1)C(=O)N[C@@H](CC(N)=O)C(=O)N[C@@H](CO)C(=O)N[C@@H](Cc1ccccc1)C(=O)NCC(=O)N[C@@H](CC(C)C)C(=O)N[C@@H](CCCNC(=N)NC)C(=O)N[C@@H](Cc1ccccc1)C(N)=O [Compound No. 228] (H-[dY]INSFGL[Arg(Me)]F-NH2)	40	5
CC[C@H](C)[C@H](NC(=O)[C@H](CC(N)=O)NC(=O)[C@H](N)Cc1ccc(O)cc1)C(=O)N[C@@H](CC(N)=O)C(=O)N[C@@H](CO)C(=O)N[C@@H](Cc1ccccc1)C(=O)NNC(=O)N[C@@H](CC(C)C)C(=O)N[C@@H](CCCNC(=N)NC)C(=O)N[C@@H](Cc1ccccc1)C(N)=O [Compound No. 233, D-Tyr-Asn-Ile-Asn-Ser-Phe-AzaGly-Leu-Arg(Me)-Phe-NH2] (H-[dY]NINSF[azaGly]L[Arg(Me)]F-NH2)	23	1
CNC(=N)NCCC[C@H](NC(=O)[C@H](CC(C)C)NC(=O)CNC(=O)[C@H](Cc1ccccc1)NC(=O)[C@H](CO)NC(=O)[C@H](CC(N)=O)NC(=O)[C@@H](Cc1c[nH]c2ccccc12)NC(=O)[C@H](CC(N)=O)NC(=O)[C@@H](N)Cc1ccc(O)cc1)C(=O)N[C@@H](Cc1ccccc1)C(N)=O [Compound No. 143, Tyr-Asn-D-Trp-Asn-Ser-Phe-Gly-Leu-Arg(Me)-Phe-NH2]	7.7	3
CNC(=N)NCCC[C@H](NC(=O)[C@H](CC(C)C)NC(=O)CNC(=O)[C@H](Cc1ccccc1)NC(=O)[C@H](CO)NC(=O)[C@H](CC(N)=O)NC(=O)[C@@H](NC(=O)[C@H](CC(N)=O)NC(=O)[C@H](N)Cc1ccc(O)cc1)[C@@H](C)O)C(=O)N[C@@H](Cc1ccccc1)C(N)=O [Compound No. 205] (H-[dY]NTNSFGL[Arg(Me)]F-NH2)	260	10
CNC(=N)NCCC[C@H](NC(=O)[C@H](CC(C)C)NC(=O)CNC(=O)[C@H](Cc1ccccc1)NC(=O)[C@H](CO)NC(=O)[C@H](CC(N)=O)NC(=O)[C@H](CO)NC(=O)[C@H](CC(N)=O)NC(=O)[C@H](N)Cc1ccc(O)cc1)C(=O)N[C@@H](Cc1ccccc1)C(N)=O [Compound No. 170] (H-[dY]NSNSFGL[Arg(Me)]F-NH2; N-terminus assumed)	260	1
CNC(=N)NCCC[C@H](NC(=O)[C@H](CC(C)C)NC(=O)NNC(=O)[C@H](Cc1ccccc1)NC(=O)[C@H](CO)NC(=O)[C@H](CC(N)=O)NC(=O)[C@H](C)NC(=O)[C@H](CC(N)=O)NC(=O)[C@H](N)Cc1ccc(O)cc1)C(=O)N[C@@H](Cc1ccccc1)C(N)=O [Compound No. 235, D-Tyr-Asn-Ala-Asn-Ser-Phe-AzaGly-Leu-Arg(Me)-Phe-NH2] (H-[dY]NANSF[azaGly]L[Arg(Me)]F-NH2)	100	1
CC(C)C[C@H](NC(=O)CNC(=O)[C@H](Cc1ccccc1)NC(=O)[C@H](CO)NC(=O)[C@H](CC(N)=O)NC(=O)[C@H](Cc1c[nH]c2ccccc12)NC(=O)[C@H](CC(N)=O)NC(=O)[C@@H](N)Cc1ccc(O)cc1)C(=O)N[C@@H](CCCNC(=N)N)C(=O)N[C@@H](CC1CCCCC1)C(N)=O [Compound No. 112] (H-YNWNSFGLR[Cha]-NH2)	370	2
CCNC(=N)NCCC[C@H](NC(=O)[C@H](CC(C)C)NC(=O)CNC(=O)[C@H](Cc1ccccc1)NC(=O)[C@H](CO)NC(=O)[C@H](CC(N)=O)NC(=O)[C@H](Cc1c[nH]c2ccccc12)NC(=O)[C@H](CC(N)=O)NC(=O)[C@@H](N)Cc1ccc(O)cc1)C(=O)N[C@@H](Cc1ccccc1)C(N)=O [Compound No. 220]	330	5
CNC(=N)NCCC[C@H](NC(=O)[C@@H](NC(=O)CNC(=O)[C@H](Cc1ccccc1)NC(=O)[C@H](CO)NC(=O)[C@H](CC(N)=O)NC(=O)[C@H](Cc1c[nH]c2ccccc12)NC(=O)[C@H](CC(N)=O)NC(=O)[C@H](N)Cc1ccc(O)cc1)C(C)C)C(=O)N[C@@H](Cc1ccccc1)C(N)=O [Compound No. 213] (H-[dY]NWNSFGV[Arg(Me)]F-NH2)	190	2
CNC(=N)NCCC[C@H](NC(=O)[C@H](CC(C)C)NC(=O)NNC(=O)[C@H](Cc1ccccc1)NC(=O)[C@H](Cc1ccccc1)NC(=O)[C@H](CO)NC(=O)[C@H](CC(N)=O)NC(=O)[C@H](Cc1ccccc1)NC(=O)[C@H](CC(N)=O)NC(=O)[C@H](N)Cc1ccc(O)cc1)C(=O)N[C@@H](Cc1ccccc1)C(N)=O [Compound No. 270, D-Tyr-Asn-Phe-Asn-Ser-Phe-Phe-AzaGly-Leu-Arg(Me)-Phe-NH2] (H-[dY]NFNSFF[azaGly]L[Arg(Me)]F-NH2)	15	1
CNC(=N)NCCC[C@H](NC(=O)[C@H](CC(C)C)NC(=O)NNC(=O)[C@H](Cc1ccccc1)NC(=O)[C@H](CO)NC(=O)[C@H](CC(N)=O)NC(=O)[C@H](Cc1cccc2ccccc12)NC(=O)[C@H](CC(N)=O)NC(=O)[C@H](N)Cc1ccc(O)cc1)C(=O)N[C@@H](Cc1ccccc1)C(N)=O [Compound No. 245, D-Tyr-Asn-Nal(1)-Asn-Ser-Phe-AzaGly-Leu-Arg(Me)-Phe-NH2] (H-[dY]N[1Nal]NSF[azaGly]L[Arg(Me)]F-NH2)	98	1
CNC(=N)NCCC[C@H](NC(=O)[C@H](CC(C)C)NC(=O)NNC(=O)[C@H](Cc1ccccc1)NC(=O)[C@H](CO)NC(=O)[C@H](CC(N)=O)NC(=O)[C@@H](NC(=O)[C@@H](CC(N)=O)NC(=O)[C@H](N)Cc1ccc(O)cc1)[C@@H](C)O)C(=O)N[C@@H](Cc1ccc(F)cc1)C(N)=O [Compound No. 316, D-Tyr-D-Asn-Thr-Asn-Ser-Phe-AzaGly-Leu-Arg(Me)-Phe(4F)-NH2] (H-[dY][dN]TNSF[azaGly]L[Arg(Me)][Phe(4-F)]-NH2)	26	1
CC(C)C[C@H](NC(=O)[C@H](CO)NC(=O)[C@H](Cc1ccccc1)NC(=O)[C@H](CO)NC(=O)[C@H](CC(N)=O)NC(=O)[C@H](Cc1c[nH]c2ccccc12)NC(=O)[C@H](CC(N)=O)NC(=O)[C@@H](N)Cc1ccc(O)cc1)C(=O)N[C@@H](CCCNC(=N)N)C(=O)N[C@@H](Cc1ccccc1)C(N)=O [Compound No. 101] (H-YNWNSFSLRF-NH2)	100	10
CC(C)C[C@H](NC(=O)CNC(=O)[C@H](Cc1cccc2ccccc12)NC(=O)[C@H](CO)NC(=O)[C@H](CC(N)=O)NC(=O)[C@H](Cc1c[nH]c2ccccc12)NC(=O)[C@H](CC(N)=O)NC(=O)[C@@H](N)Cc1ccc(O)cc1)C(=O)N[C@@H](CCCNC(=N)N)C(=O)N[C@@H](Cc1ccccc1)C(N)=O [Compound No. 151, Tyr-Asn-Trp-Asn-Ser-Nal(1)-Gly-Leu-Arg-Phe-NH2] (H-YNWNS[1Nal]GLRF-NH2; N-terminus assumed)	300	1
CNC(=N)NCCC[C@H](NC(=O)[C@H](CC(C)C)NC(=O)NNC(=O)[C@H](Cc1ccccc1)NC(=O)[C@H](CO)NC(=O)[C@H](CC(N)=O)NC(=O)[C@@H](Cc1c[nH]c2ccccc12)NC(=O)[C@@H](CC(N)=O)NC(=O)[C@H](N)Cc1ccc(O)cc1)C(=O)N[C@@H](Cc1ccccc1)C(N)=O [Compound No. 238, D-Tyr-D-Asn-D-Trp-Asn-Ser-Phe-AzaGly-Leu-Arg(Me)-Phe-NH2]	49	1
COc1ccc(C[C@H](NC(=O)[C@H](CCCNC(=N)N)NC(=O)[C@H](CC(C)C)NC(=O)CNC(=O)[C@H](Cc2ccccc2)NC(=O)[C@H](CO)NC(=O)[C@H](CC(N)=O)NC(=O)[C@H](Cc2c[nH]c3ccccc23)NC(=O)[C@H](CC(N)=O)NC(=O)[C@@H](N)Cc2ccc(O)cc2)C(N)=O)cc1 [Compound No. 18] (H-YNWNSFGLRY(Me)-NH2)	7.7	1
CC(C)C[C@H](NC(=O)CNC(=O)[C@H](Cc1ccccc1)NC(=O)[C@H](CO)NC(=O)[C@H](CC(N)=O)NC(=O)CCc1c[nH]c2ccccc12)C(=O)N[C@@H](CCCNC(=N)N)C(=O)N[C@@H](Cc1ccccc1)C(N)=O [Compound No. 114, 3-(3-Indolyl)propionyl-Asn-Ser-Phe-Gly-Leu-Arg-Phe-NH2] ({Propanoyl(3-indol-3-yl)}-NSFGLRF-NH2)	550	3
CNC(=N)NCCC[C@H](NC(=O)[C@H](CC(C)C)NC(=O)CNC(=O)[C@H](Cc1ccccc1)NC(=O)[C@H](CO)NC(=O)[C@H](CC(N)=O)NC(=O)[C@@H](Cc1c[nH]c2ccccc12)NC(=O)[C@H](N)Cc1ccc(O)cc1)C(=O)N[C@@H](Cc1ccccc1)C(N)=O [Compound No. 224, D-Tyr-D-Trp-Asn-Ser-Phe-Gly-Leu-Arg(Me)-Phe-NH2] (H-[dY][dW]NSFGL[Arg(Me)]F-NH2)	140	2 and 1
